Reference: patent US20070093520A1, “Method of treatment of diarrhea-predominant irritable bowel syndrome in a subject” (priority 2005, published 2007)

Tested on: diarrhea-predominant IBS subjects
Test: 3007 Study: open-label 52-week safety study, adverse events and withdrawals
Settings: Overall

With `Cc1nccn1C[C@H]1CCc2c(c3cccc4c3n2CCC4)C1=O` [cilansetron, (R)-(−)-4,5,6,8,9,10-hexahydro-10-[(2-methyl-1H-imidazol-1-yl)methyl]-11H-pyrido-[3,2,1-jk]-carbazol-11-one] the “TEAE: Faeces Abnormal” value was 9 (2%) n (%), the “TEAE: Faeces Hard” value was 6 (1%) n (%) and the “TEAE: Fall” value was 4 (<1%) n (%). The “TEAE: Fatigue” value was 13 (2%) n (%), the “TEAE: Fatigue Aggravated” value was 1 (<1%) n (%) and the “TEAE: Febrile Disorders” value was 3 (<1%) n (%). The “TEAE: Fibroma NOS” value was 1 (<1%) n (%), the “TEAE: Fibromyalgia” value was 1 (<1%) n (%) and the “TEAE: Flatulence” value was 26 (5%) n (%). The “TEAE: Flatulence, Bloating and Distension” value was 36 (7%) n (%), the “TEAE: Fluid Intake Increased” value was 1 (<1%) n (%) and the “TEAE: Fluid in Middle Ear” value was 1 (<1%) n (%). For the same compound, the “TEAE: Flushing” value was 1 (<1%) n (%), the “TEAE: Food Allergy” value was 1 (<1%) n (%) and the “TEAE: Food Poisoning NOS” value was 3 (<1%) n (%). The “TEAE: Foot Fracture” value was 2 (<1%) n (%), the “TEAE: Fractures and Dislocations NEC” value was 1 (<1%) n (%) and the “TEAE: Frequent Bowel Movements” value was 1 (<1%) n (%). For the same compound, the “TEAE: Fungal Infection NOS” value was 3 (<1%) n (%), the “TEAE: Fungal Infections NEC” value was 8 (1%) n (%) and the “TEAE: Gamma-Glutamyltransferase Increased” value was 8 (1%) n (%). For the same compound, the “TEAE: Gastric Irritation” value was 1 (<1%) n (%), the “TEAE: Gastritis (Excl Infective)” value was 3 (<1%) n (%) and the “TEAE: Gastritis NOS” value was 3 (<1%) n (%). For the same compound, the “TEAE: Gastroenteritis NOS” value was 9 (2%) n (%), the “TEAE: Gastroenteritis Viral NOS” value was 11 (2%) n (%) and the “TEAE: Gastrointestinal Atonic and Hypomotility Disorders NEC” value was 133 (25%) n (%). The “TEAE: Gastrointestinal Disorders” value was 268 (50%) n (%), the “TEAE: Gastrointestinal Disorders NEC” value was 3 (<1%) n (%) and the “TEAE: Gastrointestinal Dyskinetic Disorders” value was 4 (<1%) n (%). The “TEAE: Gastrointestinal Histopathology Procedures” value was 37 (7%) n (%), the “TEAE: Gastrointestinal Infections - Pathogen Class Unspecified” value was 9 (2%) n (%) and the “TEAE: Gastrointestinal Inflammatory Disorders NEC” value was 2 (<1%) n (%). For the same compound, the “TEAE: Gastrointestinal Motility Disorder NOS” value was 3 (<1%) n (%), the “TEAE: Gastrointestinal Mucosal Dystrophies and Secretion Disorders” value was 1 (<1%) n (%) and the “TEAE: Gastrointestinal Signs and Symptoms NEC” value was 4 (<1%) n (%). For the same compound, the “TEAE: Gastrointestinal Spastic and Hypermotility Disorders” value was 5 (<1%) n (%), the “TEAE: Gastrointestinal and Abdominal Pains (Excl Oral and Throat)” value was 69 (13%) n (%) and the “TEAE: General Disorders and Administration Site Conditions” value was 42 (8%) n (%). The “TEAE: General Signs and Symptoms NEC” value was 9 (2%) n (%), the “TEAE: Gilbert's Syndrome” value was 1 (<1%) n (%) and the “TEAE: Gingival Abscess” value was 2 (<1%) n (%). The “TEAE: Gingival Atrophy” value was 1 (<1%) n (%), the “TEAE: Gingival Disorders NEC” value was 3 (<1%) n (%) and the “TEAE: Gingival Pain” value was 1 (<1%) n (%). For the same compound, the “TEAE: Gingival Pains” value was 1 (<1%) n (%), the “TEAE: Gingivitis” value was 2 (<1%) n (%) and the “TEAE: Gingivitis Infection NOS” value was 1 (<1%) n (%). For the same compound, the “TEAE: Glucose Tolerance Impaired” value was 1 (<1%) n (%), the “TEAE: Glucose Urine Present” value was 1 (<1%) n (%) and the “TEAE: Glycosuria” value was 1 (<1%) n (%). The “TEAE: Goitre” value was 1 (<1%) n (%), the “TEAE: Gout” value was 2 (<1%) n (%) and the “TEAE: Groin Pain” value was 1 (<1%) n (%). The “TEAE: Haematocrit Decreased” value was 1 (<1%) n (%), the “TEAE: Haematoma NOS” value was 1 (<1%) n (%) and the “TEAE: Haematuria” value was 4 (<1%) n (%). For the same compound, the “TEAE: Haemoglobin Decreased” value was 1 (<1%) n (%), the “TEAE: Haemorrhoidal Haemorrhage” value was 4 (<1%) n (%) and the “TEAE: Haemorrhoids” value was 11 (2%) n (%). The “TEAE: Haemorrhoids Aggravated” value was 1 (<1%) n (%), the “TEAE: Haemorrhoids and Gastrointestinal Varices (Excl Oesophageal)” value was 15 (3%) n (%) and the “TEAE: Halitosis” value was 1 (<1%) n (%). For the same compound, the “TEAE: Hallucination NOS” value was 1 (<1%) n (%), the “TEAE: Hallucination, Auditory” value was 1 (<1%) n (%) and the “TEAE: Hand Fracture” value was 1 (<1%) n (%). For the same compound, the “TEAE: Headache NOS” value was 31 (6%) n (%), the “TEAE: Headache NOS Aggravated” value was 5 (<1%) n (%) and the “TEAE: Headaches NEC” value was 39 (7%) n (%). For the same compound, the “TEAE: Hearing Losses” value was 1 (<1%) n (%), the “TEAE: Heart Rate Increased” value was 2 (<1%) n (%) and the “TEAE: Heart Rate and Pulse Investigations” value was 2 (<1%) n (%). The “TEAE: Heat Exhaustion” value was 1 (<1%) n (%), the “TEAE: Heat Injuries (Excl Thermal Burns)” value was 1 (<1%) n (%) and the “TEAE: Helicobacter Pylori Antibody Positive” value was 1 (<1%) n (%). The “TEAE: Hepatitis NOS” value was 1 (<1%) n (%), the “TEAE: Hepatobiliary Disorders” value was 5 (<1%) n (%) and the “TEAE: Hepatobiliary Signs and Symptoms” value was 1 (<1%) n (%). For the same compound, the “TEAE: Hepatocellular Damage and Hepatitis NEC” value was 1 (<1%) n (%), the “TEAE: Hepatosplenomegaly NOS” value was 1 (<1%) n (%) and the “TEAE: Hernia NOS” value was 1 (<1%) n (%). For the same compound, the “TEAE: Hernia Repair NOS” value was 1 (<1%) n (%), the “TEAE: Hernia Repairs” value was 1 (<1%) n (%) and the “TEAE: Hernias NEC” value was 1 (<1%) n (%). For the same compound, the “TEAE: Herpes Simplex” value was 3 (<1%) n (%), the “TEAE: Herpes Simplex Aggravated” value was 1 (<1%) n (%) and the “TEAE: Herpes Viral Infections” value was 5 (<1%) n (%). The “TEAE: Herpes Zoster” value was 1 (<1%) n (%), the “TEAE: Hiatus Hernia” value was 2 (<1%) n (%) and the “TEAE: Hot Flushes NOS” value was 1 (<1%) n (%). The “TEAE: Hypercholesterolaemia” value was 6 (1%) n (%), the “TEAE: Hyperglycaemia NOS” value was 3 (<1%) n (%) and the “TEAE: Hyperglycaemic Conditions NEC” value was 4 (<1%) n (%). For the same compound, the “TEAE: Hyperkeratoses” value was 1 (<1%) n (%), the “TEAE: Hyperkeratosis” value was 1 (<1%) n (%) and the “TEAE: Hyperlipidaemia NOS” value was 1 (<1%) n (%). The “TEAE: Hyperlipidaemias NEC” value was 1 (<1%) n (%), the “TEAE: Hyperreflexia” value was 1 (<1%) n (%) and the “TEAE: Hypersensitivity NOS” value was 2 (<1%) n (%). For the same compound, the “TEAE: Hypertension Aggravated” value was 2 (<1%) n (%), the “TEAE: Hypertension NOS” value was 13 (2%) n (%) and the “TEAE: Hypoaesthesia” value was 2 (<1%) n (%). For the same compound, the “TEAE: Hypotension NOS” value was 1 (<1%) n (%), the “TEAE: Immune System Disorders” value was 9 (2%) n (%) and the “TEAE: Inborn Errors of Bilirubin Metabolism” value was 1 (<1%) n (%). For the same compound, the “TEAE: Infected Varicose Vein” value was 1 (<1%) n (%), the “TEAE: Infections NEC” value was 4 (<1%) n (%) and the “TEAE: Infections and Infestations” value was 173 (32%) n (%). The “TEAE: Influenza” value was 18 (3%) n (%), the “TEAE: Influenza Like Illness” value was 4 (1%) n (%) and the “TEAE: Influenza Viral Infections” value was 18 (3%) n (%). For the same compound, the “TEAE: Ingrowing Nail” value was 1 (<1%) n (%), the “TEAE: Inguinal Hernia NOS” value was 1 (<1%) n (%) and the “TEAE: Inguinal Hernias” value was 1 (<1%) n (%). For the same compound, the “TEAE: Injury, Poisoning and Procedural Complications” value was 47 (9%) n (%), the “TEAE: Inner Ear Disorders NEC” value was 1 (<1%) n (%) and the “TEAE: Inner Ear Infections and Inflammations” value was 3 (<1%) n (%). The “TEAE: Inner Ear Signs and Symptoms” value was 3 (<1%) n (%), the “TEAE: Insomnia” value was 5 (<1%) n (%) and the “TEAE: Insomnia Exacerbated” value was 1 (<1%) n (%). For the same compound, the “TEAE: Intermenstrual Bleeding*” value was 1 (<1%) n (%), the “TEAE: Intervertebral Disc Degeneration NOS” value was 2 (<1%) n (%) and the “TEAE: Intervertebral Disc Disorder NOS” value was 1 (<1%) n (%). The “TEAE: Intervertebral Disc Disorders NEC” value was 5 (<1%) n (%), the “TEAE: Intervertebral Disc Herniation” value was 4 (<1%) n (%) and the “TEAE: Intestinal Haemorrhages” value was 8 (1%) n (%). The “TEAE: Intraocular Pressure Increased” value was 2 (<1%) n (%), the “TEAE: Investigations” value was 126 (24%) n (%) and the “TEAE: Irritability” value was 1 (<1%) n (%). For the same compound, the “TEAE: Irritable Bowel Syndrome” value was 1 (<1%) n (%), the “TEAE: Irritable Bowel Syndrome Aggravated” value was 3 (<1%) n (%) and the “TEAE: Ischaemic Coronary Artery Disorders” value was 4 (<1%) n (%). The “TEAE: Joint Related Disorders NEC” value was 2 (<1%) n (%), the “TEAE: Joint Related Signs and Symptoms” value was 14 (3%) n (%) and the “TEAE: Joint Sprain” value was 4 (<1%) n (%). The “TEAE: Joint Swelling” value was 1 (<1%) n (%), the “TEAE: Kidney Infection NOS” value was 1 (<1%) n (%) and the “TEAE: Labyrinthitis NOS” value was 3 (<1%) n (%). For the same compound, the “TEAE: Laceration” value was 6 (1%) n (%), the “TEAE: Lacrimal Disorders” value was 2 (<1%) n (%) and the “TEAE: Lactose Intolerance” value was 1 (<1%) n (%). For the same compound, the “TEAE: Laryngeal and Adjacent Sites Disorders NEC (Excl Infections and Neoplasms)” value was 3 (<1%) n (%), the “TEAE: Laryngitis NOS” value was 3 (<1%) n (%) and the “TEAE: Leiomyoma NOS” value was 1 (<1%) n (%). The “TEAE: Lethargy” value was 1 (<1%) n (%), the “TEAE: Leukopenia NOS” value was 2 (<1%) n (%) and the “TEAE: Leukopenias NEC” value was 2 (<1%) n (%). For the same compound, the “TEAE: Libido Decreased” value was 1 (<1%) n (%), the “TEAE: Lid, Lash and Lacrimal Structural Disorders (Excl Congenital)” value was 1 (<1%) n (%) and the “TEAE: Ligament Sprain” value was 2 (<1%) n (%). For the same compound, the “TEAE: Limb Discomfort NOS” value was 1 (<1%) n (%), the “TEAE: Limb Injuries NEC (Incl Traumatic Amputation)” value was 4 (<1%) n (%) and the “TEAE: Limb Injury NOS” value was 2 (<1%) n (%). For the same compound, the “TEAE: Lip and Palate Disorders NEC” value was 1 (<1%) n (%), the “TEAE: Lipid Metabolism Disorder NOS” value was 1 (<1%) n (%) and the “TEAE: Lipid Metabolism and Deposit Disorders NEC” value was 1 (<1%) n (%). The “TEAE: Lipoma NOS” value was 2 (<1%) n (%), the “TEAE: Liver Function Analyses” value was 23 (4%) n (%) and the “TEAE: Liver Function Tests NOS Abnormal” value was 2 (<1%) n (%). The “TEAE: Localised Infection” value was 2 (<1%) n (%), the “TEAE: Localised Osteoarthritis” value was 1 (<1%) n (%) and the “TEAE: Loss of Consciousness” value was 1 (<1%) n (%). The “TEAE: Lower Limb Fracture NOS” value was 1 (<1%) n (%), the “TEAE: Lower Limb Fractures and Dislocations” value was 3 (<1%) n (%) and the “TEAE: Lower Respiratory Tract Signs and Symptoms” value was 2 (<1%) n (%). For the same compound, the “TEAE: Lower Respiratory Tract and Lung Infections” value was 28 (5%) n (%), the “TEAE: Lymphadenopathy” value was 2 (<1%) n (%) and the “TEAE: Lymphangitis and Lymphatic Disorders NEC” value was 2 (<1%) n (%). The “TEAE: Lymphocyte Count Increased” value was 2 (<1%) n (%).
